According to the supplement of paper PMC10307832:

What was measured:
Test in all cases: relative viability (nuclei count vs DMSO), 5 days (fraction); higher = more cells survive
[1] = compound: C1COCCN1C2=NC(=NC3=C2OC4=C3C=CC=N4)C5=CC(=CC=C5)NC(=O)C6=CN=C(C=C6)N + C[C@]1(O)C[C@@H](c2nc(-c3ccc4ccc(-c5ccccc5)nc4c3)c3c(N)nccn32)C1 [Linsitinib] (partner 1 µM)
In short: (§1)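 A single step with final 0.05% Triton X-100, 1% formaldehyde and 1 ug/ml Hoechst fixed the cells and stained nuclei 5 days after treatment. Lung cancer cell lines in 1536-well plates had been treated by pin tool the day after seeding with one drug alone or a fixed anchor-drug dose plus five library-drug doses (not always all listed) in √10 steps, and nuclei were counted on 4× images. Relative viability is the ratio of nuclei in treated wells to nuclei in vehicle wells, taken as the median of duplicate plates.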

SGI-1776 + Decitabine = compound: CN1CCC(CNc2ccc3ncc(-c4cccc(OC(F)(F)F)c4)n3n2)CC1 [SGI-1776] + Nc1ncn([C@H]2C[C@H](O)[C@@H](CO)O2)c(=O)n1 [Decitabine] (partner 2 µM)
In short: as §1

SGI-1776 + Foretinib = compound: CN1CCC(CNc2ccc3ncc(-c4cccc(OC(F)(F)F)c4)n3n2)CC1 [SGI-1776] + COc1cc2c(Oc3ccc(NC(=O)C4(C(=O)Nc5ccc(F)cc5)CC4)cc3F)ccnc2cc1OCCCN1CCOCC1 [Foretinib] (partner 0.25 µM)
In short: as §1

Entinostat + Alpelisib = compound: Nc1ccccc1NC(=O)c1ccc(CNC(=O)OCc2cccnc2)cc1 [Entinostat] + Cc1nc(NC(=O)N2CCC[C@H]2C(N)=O)sc1-c1ccnc(C(C)(C)C(F)(F)F)c1 [Alpelisib] (partner 2 µM)
In short: as §1

Cell Line	relative viability ([1]; first compound 0.02 µM)	relative viability ([1]; first compound 0.06325 µM)	relative viability ([1]; first compound 0.2 µM)	relative viability ([1]; first compound 0.6325 µM)	relative viability ([1]; first compound 2 µM)	relative viability (SGI-1776 + Decitabine; first compound 0.08 µM)	relative viability (SGI-1776 + Decitabine; first compound 0.8 µM)	relative viability (SGI-1776 + Decitabine; first compound 2.53 µM)	relative viability (SGI-1776 + Decitabine; first compound 8 µM)	relative viability (SGI-1776 + Foretinib; first compound 0.08 µM)	relative viability (SGI-1776 + Foretinib; first compound 0.8 µM)	relative viability (SGI-1776 + Foretinib; first compound 2.53 µM)	relative viability (SGI-1776 + Foretinib; first compound 8 µM)	relative viability (Entinostat + Alpelisib; first compound 0.02 µM)	relative viability (Entinostat + Alpelisib; first compound 0.06325 µM)	relative viability (Entinostat + Alpelisib; first compound 0.2 µM)	relative viability (Entinostat + Alpelisib; first compound 0.6325 µM)	relative viability (Entinostat + Alpelisib; first compound 2 µM)
RERF-LC-KJ	0.958	0.961	0.898	0.863	0.63	0.67	0.652	0.566	0.363	0.879	0.894	0.879	0.78	0.846	0.704	0.866	0.647	0.427
NCI-H1915	1.08	1.14	1.13	1.11	1.08	0.271	0.258	0.268	0.221	1.09	1.03	1.11	1.09	1.07	1.08	1.05	0.816	0.402
NCI-H647	1.11	1.27	1.19	0.901	0.588	0.409	0.392	0.44	0.339	1.22	1.24	1.18	1.15	1.09	1.28	1.06	0.419	0.11
SK-LU-1	1.23	1.13	1.02	1.18	0.574	0.671	0.665	0.658	0.645	0.843	0.773	0.765	0.426	0.954	0.962	0.943	0.555	0.458
NCI-H441	0.522	0.609	0.569	0.534	0.357	0.26	0.26	0.236	0.22	0.992	0.925	1.17	0.728	0.577	0.665	0.608	0.22	0.18
COR-L 105	0.984	1.03	0.822	0.905	0.672	0.75	0.705	0.737	0.544	0.857	1.1	0.72	0.734	0.842	0.925	0.844	0.608	0.345
NCI-H2009	1.29	1.2	1.17	1.17	0.871	0.388	0.374	0.36	0.342	1.19	1.27	1.24	0.931	1.21	1.13	1.15	0.884	0.721
NCI-H1563	1.22	1.32	1.22	0.901	0.884	–	–	–	–	0.949	0.952	0.92	0.888	0.908	0.883	0.826	0.807	0.636
PC-14	0.991	0.999	0.953	0.86	0.502	0.238	0.264	0.168	0.124	1.03	0.959	0.952	0.672	1.03	0.99	0.935	0.487	0.219
NCI-H1703	0.412	0.567	0.747	0.757	0.381	–	–	–	–	0.403	0.322	0.291	0.282	0.41	0.413	0.522	0.504	0.428
NCI-H1944	1.19	1.17	1.16	1.13	1	0.427	0.439	0.468	0.396	0.869	0.83	0.926	0.713	0.81	0.774	0.556	0.422	0.273
EBC-1	0.826	1.07	0.875	0.847	0.58	–	–	–	–	0.0952	0.0955	0.127	0.0874	0.832	0.984	0.542	0.179	0.116
NCI-H1792	0.608	0.508	0.565	0.257	0.468	0.651	0.508	0.658	0.527	–	–	–	–	0.752	0.673	0.543	0.381	0.223
NCI-H1650	–	–	–	–	–	0.456	0.388	0.473	0.342	1.02	0.974	0.729	0.447	–	–	–	–	–
NCI-H1648	–	–	–	–	–	0.432	0.414	0.461	0.497	–	–	–	–	–	–	–	–	–
NCI-H1299	0.922	1.13	0.953	1	0.805	–	–	–	–	1.08	1.11	1.07	1.01	1.09	1.02	1.06	0.883	0.815
NCI-H1623	–	–	–	–	–	–	–	–	–	0.984	0.859	0.893	0.901	–	–	–	–	–
NCI-H2170	–	–	–	–	–	0.478	0.441	0.393	0.475	0.959	1	1.02	0.987	0.77	0.747	0.771	0.521	0.345
NCI-H2228	0.588	0.481	0.737	0.728	0.524	–	–	–	–	0.889	0.613	0.803	0.446	0.785	0.608	0.473	0.325	0.273
HCC-44	0.616	0.846	0.711	0.606	0.331	0.964	0.938	0.941	0.921	–	–	–	–	0.778	0.588	0.46	0.329	0.187
NCI-H522	–	–	–	–	–	0.632	0.595	0.728	0.562	–	–	–	–	–	–	–	–	–
Calu-6	0.943	1.14	0.975	0.9	0.527	–	–	–	–	0.91	0.88	0.875	0.344	1.01	1.06	0.941	0.624	0.457
ChaGo-K-1	–	–	–	–	–	0.56	0.542	0.558	0.47	0.834	0.96	0.993	0.741	–	–	–	–	–
